Results as given in paper PMC4573514, “Identification and characterization of [6]-shogaol from ginger as inhibitor of vascular smooth muscle cell proliferation” (Molecular Nutrition & Food Research, 2015).
Entries after “also recorded” stand apart in the source; their conditions may differ.

Assays:
VSMC [1] = test: Assessment of cytotoxicity by LDH release; assay type: cell-based; settings: PDGF-BB 20 ng/mL, 24 h, n.s. = no significant difference, up to stated concentration
Description: VSMC were seeded in 96-well plates at 5 × 10^3 cells/well. Twenty-four hours later, cells were serum starved for 24 h to render them quiescent. Quiescent cells were pretreated for 30 min with compounds, or vehicle (0.1% DMSO) as indicated, and subsequently stimulated for 24 h with PDGF-BB (20 ng/mL). Loss of cell membrane integrity as a sign for cell death can be quantified by the release of the soluble cytosolic protein lactate dehydrogenase (LDH),[23]. For this, the supernatant of the treated cells was assessed for LDH activity. For estimation of the total LDH, identically treated samples were incubated for 45 min in the presence of 1% Triton X-100. The released and total LDH enzyme activity was measured for 30 min at the dark in the presence of 4.5 mg/mL lactate, 0.56 mg/mL NAD+, 1.69 U/mL diaphorase, 0.004% w/v BSA, 0.15% w/v sucrose, and 0.5 mM 2-p-iodophenyl-3-nitrophenyl tetrazolium chloride. The enzyme reaction was stopped with 1.78 mg/mL oxymate and the absorbance was measured at 490 nm. Potential effects on cell viability were estimated as percentage of extracellular LDH enzyme activity. The cytotoxic natural product digitonin (100 μg/mL) was used as a positive control.

HUVECtert = test: Resazurin conversion assay in endothelial cells; assay type: cell-based, human; settings: for Resazurin metabolic conversion in HUVECs (endothelial viability/proliferation): HUVECtert, 48 h, n.s. = no significant difference, up to stated concentration
Description: VSMC were seeded in 96-well plates at 5 × 10^3 cells/well. After 24 h, cells were serum-starved for 24 h to render them quiescent. Quiescent cells were pretreated for 30 min with ginger extract, compounds, or vehicle (0.1% DMSO) as indicated, and subsequently stimulated for 48 h with PDGF-BB (20 ng/mL). […] Total metabolic activity was measured by monitoring the increase in fluorescence at a wavelength of 590 nm using an excitation wavelength of 535 nm in a 96-well plate reader (Tecan GENios Pro). HUVECtert cells,[20] were seeded in 96-well plates at 5 × 10^3 cells/well. After 24 h, HUVECtert cells were treated with compounds or vehicle (0.1% DMSO) as indicated and incubated for 48 h. Then, cells were washed with PBS and incubated in culture medium containing 10 μg/mL resazurin for 2 h. The detection step is performed as described above.

VSMC [2] = test: Crystal violet biomass staining, PDGF-BB-stimulated VSMC; assay type: cell-based; settings: Rattus norvegicus, PDGF-BB 20 ng/mL, 48 h
Description: VSMC were seeded in 96-well plates at 5 × 10^3 cells/well. Twenty-four hours later, cells were serum starved for 24 h to render them quiescent. Quiescent cells were pretreated for 30 min with ginger extract, compounds, or vehicle (0.1% DMSO) as indicated and subsequently stimulated for 48 h with PDGF-BB (20 ng/mL). To determine the total biomass by crystal violet staining, cells were then incubated in 100 μL of crystal violet staining solution (0.5% crystal violet, 20% methanol) for 15 min and then washed with ddH2O. After drying, 100 μL EtOH/Na-citrate solution were added (EtOH: 0.1M Na-citrate = 1:1) and the absorbance of the samples was measured at 595 nm in a 96-well plate reader (Tecan sunrise).

VSMC [3] = test: Resazurin conversion assay, PDGF-BB-induced VSMC proliferation; assay type: cell-based, rat; settings: for IC50: VSMC
Description: VSMC were seeded in 96-well plates at 5 × 10^3 cells/well. After 24 h, cells were serum-starved for 24 h to render them quiescent. Quiescent cells were pretreated for 30 min with ginger extract, compounds, or vehicle (0.1% DMSO) as indicated, and subsequently stimulated for 48 h with PDGF-BB (20 ng/mL). To measure the number of metabolically active VSMC by resazurin conversion,[19], cells were washed with PBS and incubated in serum-free medium containing 10 μg/mL resazurin for 2 h. Total metabolic activity was measured by monitoring the increase in fluorescence at a wavelength of 590 nm using an excitation wavelength of 535 nm in a 96-well plate reader (Tecan GENios Pro). HUVECtert cells,[20] were seeded in 96-well plates at 5 × 10^3 cells/well. After 24 h, HUVECtert cells were treated with compounds or vehicle (0.1% DMSO) as indicated and incubated for 48 h. Then, cells were washed with PBS and incubated in culture medium containing 10 μg/mL resazurin for 2 h. The detection step is performed as described above.

HO-1 = test: Immunoblot analysis of HO-1 expression in VSMC; assay type: cell-based, rat; settings: 3 and 10 μM, PDGF-BB 20 h
Description: (§1) Cells (MEF or VSMC) were seeded onto six-well plates ((3–4) × 10^5 cells/well). Twenty-four hours later, MEF were treated with vehicle (0.1% DMSO) or [6]-shogaol at the indicated concentrations for 20 h; VSMC were serum starved for another 24 h, then quiescent cells were pretreated for 30 min with vehicle (0.1% DMSO) or [6]-shogaol as indicated and subsequently stimulated for 20 h with PDGF-BB (20 ng/mL). Then, cells were lysed and protein extracts were subjected to SDS-PAGE electrophoresis and immunoblot analysis as described,[22]. Proteins were visualized using enhanced chemiluminescence reagent and an LAS-3000 luminescent image analyzer (Fujifilm) with AIDA software (Raytest) for densitometric evaluation.

VSMC [4] = test: Cell-cycle analysis by PI staining and flow cytometry; assay type: cell-based, rat; settings: 10 μM, PDGF-BB 20 ng/mL 16 h, PI stained nuclei
Description: VSMC were seeded in 12-well plates at 1 × 10^4 cells/well. Twenty-four hours later, cells were serum starved for 24 h to render them quiescent. Quiescent cells were preincubated with [6]-shogaol (10 μM) or vehicle ([…]) for 30 min. PDGF-BB (20 ng/mL) was added, and 16 h later cells were trypsinized, washed once with PBS, and resuspended in a hypotonic propidium iodide (PI) solution containing 0.1% v/v Triton X-100, 0.1% w/v sodium citrate, and 50 μg/mL PI. After incubation at 4°C overnight, PI-stained nuclei were analyzed by flow cytometry (excitation 488 nm, emission 585 nm; FACScalibur; BD Biosciences, Germany).

[5] = parameters: method as in PMID 19201263; settings: rats, single oral administration of ginger oleoresin 300 mg/kg; ref [39]; cited from earlier work
Nrf2/HO-1 = test: Immunoblot analysis of HO-1 in WT and Nrf2-/- mouse embryonic fibroblasts; assay type: cell-based; settings: 10 or 3 μM
Description: as §1

VSMC [6] = test: BrdU incorporation assay (de novo DNA synthesis); assay type: cell-based; settings: Rattus norvegicus, PDGF-BB 20 ng/mL, read-out: Inhibition of PDGF-stimulated DNA synthesis, BrdU incorporation (IC50)
Description: VSMC were seeded in 96-well plates at 5 × 10^3 cells/well. Twenty-four hours later, cells were serum starved for 24 h to render them quiescent. Quiescent cells were pretreated for 30 min with compounds, or vehicle (0.1% DMSO) as indicated and subsequently stimulated with PDGF-BB (20 ng/mL). To estimate de novo DNA synthesis in VSMC [21],[22], BrdU was added 2 h after PDGF stimulation, and the incorporation amount was determined 22 h afterwards according to the manufacturer's instructions (Roche Diagnostics).

[7] = Rattus norvegicus, 48 h, PDGF-BB 20 ng/mL, 48 h, read-out: Resazurin metabolic conversion (IC50)

Structure (SMILES) | IC50 (VSMC [2]) | Cell death (LDH release) (VSMC [1]) | Resazurin metabolic conversion in HUVECs (endothelial viability/proliferation) (HUVECtert) | IC50 (VSMC [3]; [7]) | other results
CCCCCCCC(O)CCc1ccc(O)c(OC)c1 (racemic) [rac-[6]-Dihydroparadol, rac-[6]-dihydroparadol] | 4.11 µM | n.s. (up to 30 μM) | n.s. (up to 30 μM) | 10 µM | –
COc1cc(CCC(C)=O)ccc1O [Zingerone, zingerone] | – | – | – | > 100 µM | –
CC(=O)O[C@H]1C(=O)[C@@]2(C)[C@H]([C@H](OC(=O)c3ccccc3)[C@]3(O)C[C@H](OC(=O)[C@H](O)[C@@H](NC(=O)c4ccccc4)c4ccccc4)C(C)=C1C3(C)C)[C@]1(OC(C)=O)CO[C@@H]1C[C@@H]2O [paclitaxel, reference compound] | – | – | – | – | IC50 (HUVECtert; Homo sapiens, Endothelial cell, endothelial cells, data not shown, read-out: Anti-proliferative effect in endothelial cells (IC50)): 0.004 µM; IC50 (VSMC [3]; Rattus norvegicus, data not shown, read-out: Anti-proliferative effect in VSMC (IC50)): 0.108 µM

The next lines start with results.

IC50 (VSMC [2]) | Structure (SMILES) | Cell death (LDH release) (VSMC [1]) | Resazurin metabolic conversion in HUVECs (endothelial viability/proliferation) (HUVECtert) | IC50 (VSMC [3]; [7]) | other results
8.77 µM | CCCCC[C@H](O)CC(=O)CCc1ccc(O)c(OC)c1 [[6]-Gingerol, [6]-gingerol] | n.s. (up to 100 μM) | n.s. (up to 30 μM) | 13.2 µM | –
3.34 µM | CCCCCCCC(=O)CCc1ccc(O)c(OC)c1 [[6]-Paradol, [6]-paradol] | n.s. (up to 30 μM) | n.s. (up to 30 μM) | 5.3 µM | –
1.13 µM | CCCCCC=CC(=O)CCc1ccc(O)c(OC)c1 [[6]-Shogaol, [6]-shogaol] | n.s. (up to 10 μM) | n.s. (up to 10 μM) | 2.7 µM | Cell death (LDH release) (VSMC [1]; listed as [6]-shogaol): did not exhibit cytotoxicity toward VSMC; HO-1 levels compared to vehicle treated cells (HO-1): significantly elevated HO-1 levels; Cell-cycle distribution (VSMC [4]): counteracted the PDGF-induced transition of VSMC from the G0/G1 cell-cycle phase to the G2/M phase; Peak plasma concentration [5]: 0.11 µg/L; Peak plasma concentration (converted) [5]: 0.40 µM; Resazurin metabolic conversion in HUVECs (endothelial viability/proliferation) (HUVECtert; listed as [6]-shogaol): did not interfere with endothelial cell proliferation; also recorded: did obviously not impair endothelial viability and proliferation; IC50 (VSMC [3]; PDGF-BB 20 ng/mL, 48 h, read-out: Resazurin metabolic conversion (IC50)): 2.72 µM; Antiproliferative effect in the presence of HO-1 inhibitor tin protoporphyrin IX (VSMC [3]; [6]-shogaol 3 μM, SnPP 10 μM pretreatment 1 h, resazurin conversion): lost its antiproliferative activity; also recorded: loses its antiproliferative influence on VSMC; HO-1 induction in WT vs Nrf2-/- fibroblasts (Nrf2/HO-1): strictly Nrf2-dependent increase of HO-1; IC50 (VSMC [6]): 3 µM
